# Test results taken from PMC4747340, “A new class of small molecule estrogen receptor-alpha antagonists that overcome anti-estrogen resistance” (Oncotarget, 2015).
# Where a name gives a salt, the structure may show the parent alone.
# Legend:
# ER Arg394Ala = molecular target: T1, ER Arg394Ala (Homo sapiens, UniProt P03372, R394A); experiment: ER mutation analysis, ERE-TK-Luc reporter in transfected MDA-MB-231 cells; assay type: cell-based; details: MDA-MB-231 transfected with mutant ER, E2 10 nM, 24 hr
# T1 construct: expressed in transfected cells; host or cells: MDA-MB-231
# T1 sequence (P03372 whole entry R394A): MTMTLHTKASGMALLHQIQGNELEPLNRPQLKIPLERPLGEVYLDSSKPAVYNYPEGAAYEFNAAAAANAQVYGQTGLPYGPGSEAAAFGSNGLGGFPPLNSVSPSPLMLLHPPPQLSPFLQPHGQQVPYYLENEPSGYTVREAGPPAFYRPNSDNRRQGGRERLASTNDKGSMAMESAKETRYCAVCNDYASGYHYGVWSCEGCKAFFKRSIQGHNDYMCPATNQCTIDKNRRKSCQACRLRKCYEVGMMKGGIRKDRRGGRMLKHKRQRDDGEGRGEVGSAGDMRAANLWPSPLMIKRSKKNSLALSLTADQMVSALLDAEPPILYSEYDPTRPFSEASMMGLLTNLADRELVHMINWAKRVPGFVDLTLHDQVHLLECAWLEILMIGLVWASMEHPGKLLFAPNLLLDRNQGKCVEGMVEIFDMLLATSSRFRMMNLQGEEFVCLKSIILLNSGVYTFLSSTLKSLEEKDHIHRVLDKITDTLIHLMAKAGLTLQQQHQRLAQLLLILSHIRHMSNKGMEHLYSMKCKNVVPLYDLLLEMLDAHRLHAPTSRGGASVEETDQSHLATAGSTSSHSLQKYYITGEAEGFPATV
# From the text: (§1) B., C. Panels B and C show a comparison of the ER interaction of one of our original series of compounds (A7) (B) and one new compounds (48693-K/1) (C). ER is represented by gray ribbon and its residues interacting with the compounds are drawn with wireframe and labeled. […] The hydrogen bond interaction with ARG 394 is shown in green line. […] The cells were harvested for luciferase assays. Luciferase values are expressed as a percent of the +E2 vehicle control and are means ± SEMs of four wells. The data shown in panels D to G are representative of three independent experiments.
# (§2) Subconfluent cells in 24-well dishes were transfected overnight with 0.25 μg of each indicated vector plus the ERE-TK-Luc reporter in serum-free DMEM containing Lipofectamine2000 (Life Technologies, Washington, DC). Total transfected DNA was kept constant by addition of control vector. The cells were washed, incubated in phenol red-free DMEM containing 5% charcoal-stripped serum (obtained from the Tissue Culture Shared Resource) (0.2 ml/well) ± E2 (10 nM) ± the indicated compound for 24-hr, and harvested for luciferase assays. For each assay condition was tested in quadrupicate. To monitor the transfection efficiency, cultures were co-transfected with plasmid pRSV-β-gal (Promega, Madison, WI) to visualize transfected cells by X-gal staining.
# ER Glu323Ala = molecular target: T2, ER Glu323Ala (Homo sapiens, UniProt P03372, E323A); experiment: as above; assay type: cell-based; details: MDA-MB-231 transfected with mutant ER, E2 10 nM, 24 hr
# T2 construct: expressed in transfected cells; host or cells: MDA-MB-231
# T2 sequence (P03372 whole entry E323A): as the sequence (P03372 whole entry R394A) above, with E323A, A394R counted along it
# From the text: as §1, §2
# ER Glu353Ala = molecular target: T3, ER Glu353Ala (Homo sapiens, UniProt P03372, E353A); experiment: as above; assay type: cell-based; details: MDA-MB-231 transfected with mutant ER, E2 10 nM, 24 hr
# T3 construct: expressed in transfected cells; host or cells: MDA-MB-231
# T3 sequence (P03372 whole entry E353A): as the sequence (P03372 whole entry R394A) above, with E353A, A394R counted along it
# From the text: as §1, §2
# ER His356Ala = molecular target: T4, ER His356Ala (Homo sapiens, UniProt P03372, H356A); experiment: as above; assay type: cell-based; details: MDA-MB-231 transfected with mutant ER, E2 10 nM, 24 hr
# T4 construct: expressed in transfected cells; host or cells: MDA-MB-231
# T4 sequence (P03372 whole entry H356A): as the sequence (P03372 whole entry R394A) above, with H356A, A394R counted along it
# From the text: as §1, §2
# ER Ile326Ala = molecular target: T5, ER Ile326Ala (Homo sapiens, UniProt P03372, I326A); experiment: as above; assay type: cell-based; details: MDA-MB-231 transfected with mutant ER, E2 10 nM, 24 hr
# T5 construct: expressed in transfected cells; host or cells: MDA-MB-231
# T5 sequence (P03372 whole entry I326A): as the sequence (P03372 whole entry R394A) above, with I326A, A394R counted along it
# From the text: as §1, §2
# ER Ile386Ala = molecular target: T6, ER Ile386Ala (Homo sapiens, UniProt P03372, I386A); experiment: as above; assay type: cell-based; details: MDA-MB-231 transfected with mutant ER, E2 10 nM, 24 hr
# T6 construct: expressed in transfected cells; host or cells: MDA-MB-231
# T6 sequence (P03372 whole entry I386A): as the sequence (P03372 whole entry R394A) above, with I386A, A394R counted along it
# From the text: as §1, §2
# ER Ile386Ala+Leu387Ala = molecular target: T7, ER Ile386Ala+Leu387Ala (Homo sapiens, UniProt P03372, I386A/L387A); experiment: as above; assay type: cell-based; details: MDA-MB-231 transfected with mutant ER, E2 10 nM, 24 hr
# T7 construct: expressed in transfected cells; host or cells: MDA-MB-231
# T7 sequence (P03372 whole entry I386A/L387A): as the sequence (P03372 whole entry R394A) above, with I386A, L387A, A394R counted along it
# From the text: as §1, §2
# ER Leu327Ala = molecular target: T8, ER Leu327Ala (Homo sapiens, UniProt P03372, L327A); experiment: as above; assay type: cell-based; details: MDA-MB-231 transfected with mutant ER, E2 10 nM, 24 hr
# T8 construct: expressed in transfected cells; host or cells: MDA-MB-231
# T8 sequence (P03372 whole entry L327A): as the sequence (P03372 whole entry R394A) above, with L327A, A394R counted along it
# From the text: as §1, §2
# ER Leu387Ala = molecular target: T9, ER Leu387Ala (Homo sapiens, UniProt P03372, L387A); experiment: as above; assay type: cell-based; details: MDA-MB-231 transfected with mutant ER, E2 10 nM, 24 hr
# T9 construct: expressed in transfected cells; host or cells: MDA-MB-231
# T9 sequence (P03372 whole entry L387A): as the sequence (P03372 whole entry R394A) above, with L387A, A394R counted along it
# From the text: as §1, §2
# ER Lys449Ala = molecular target: T10, ER Lys449Ala (Homo sapiens, UniProt P03372, K449A); experiment: as above; assay type: cell-based; details: MDA-MB-231 transfected with mutant ER, E2 10 nM, 24 hr
# T10 construct: expressed in transfected cells; host or cells: MDA-MB-231
# T10 sequence (P03372 whole entry K449A): as the sequence (P03372 whole entry R394A) above, with A394R, K449A counted along it
# From the text: as §1, §2
# ER Pro324Ala = molecular target: T11, ER Pro324Ala (Homo sapiens, UniProt P03372, P324A); experiment: as above; assay type: cell-based; details: MDA-MB-231 transfected with mutant ER, E2 10 nM, 24 hr
# T11 construct: expressed in transfected cells; host or cells: MDA-MB-231
# T11 sequence (P03372 whole entry P324A): as the sequence (P03372 whole entry R394A) above, with P324A, A394R counted along it
# From the text: as §1, §2
# ER Pro325Ala = molecular target: T12, ER Pro325Ala (Homo sapiens, UniProt P03372, P325A); experiment: as above; assay type: cell-based; details: MDA-MB-231 transfected with mutant ER, E2 10 nM, 24 hr
# T12 construct: expressed in transfected cells; host or cells: MDA-MB-231
# T12 sequence (P03372 whole entry P325A): as the sequence (P03372 whole entry R394A) above, with P325A, A394R counted along it
# From the text: as §1, §2
# ER Prol325Ala = molecular target: T13, ER Prol325Ala (Homo sapiens, UniProt P03372, P325A); experiment: as above; assay type: cell-based; details: MDA-MB-231 transfected with mutant ER, E2 10 nM, 24 hr; second row for residue 325
# T13 construct: expressed in transfected cells; host or cells: MDA-MB-231
# T13 sequence (P03372 whole entry P325A): as the sequence (P03372 whole entry R394A) above, with P325A, A394R counted along it
# From the text: as §1, §2
# ER Trp393Ala = molecular target: T14, ER Trp393Ala (Homo sapiens, UniProt P03372, W393A); experiment: as above; assay type: cell-based; details: MDA-MB-231 transfected with mutant ER, E2 10 nM, 24 hr
# T14 construct: expressed in transfected cells; host or cells: MDA-MB-231
# T14 sequence (P03372 whole entry W393A): as the sequence (P03372 whole entry R394A) above, with W393A, A394R counted along it
# From the text: as §1, §2
# Wild-type ER = molecular target: T15, Wild-type ER (Homo sapiens, UniProt P03372); experiment: as above; assay type: cell-based; details: MDA-MB-231 transfected with wtER, E2 10 nM, 24 hr
# T15 construct: expressed in transfected cells; host or cells: MDA-MB-231
# From the text: as §1, §2
# [1] = molecular target: T16, estrogen receptor-alpha (ER) (Homo sapiens, UniProt P03372); experiment: constitutive ER activity, ERE-TK-Luc reporter, in anti-estrogen resistant LCC9 cells; assay type: cell-based; set-up: LCC9 cells in 24-well dishes were transfected overnight with the ERE-TK-Luc reporter plasmid; endogenous in cells; host or cells: LCC9; details: compound plus Tam compared with compound alone, 24 hr
# T16 sequence (P03372 1-595): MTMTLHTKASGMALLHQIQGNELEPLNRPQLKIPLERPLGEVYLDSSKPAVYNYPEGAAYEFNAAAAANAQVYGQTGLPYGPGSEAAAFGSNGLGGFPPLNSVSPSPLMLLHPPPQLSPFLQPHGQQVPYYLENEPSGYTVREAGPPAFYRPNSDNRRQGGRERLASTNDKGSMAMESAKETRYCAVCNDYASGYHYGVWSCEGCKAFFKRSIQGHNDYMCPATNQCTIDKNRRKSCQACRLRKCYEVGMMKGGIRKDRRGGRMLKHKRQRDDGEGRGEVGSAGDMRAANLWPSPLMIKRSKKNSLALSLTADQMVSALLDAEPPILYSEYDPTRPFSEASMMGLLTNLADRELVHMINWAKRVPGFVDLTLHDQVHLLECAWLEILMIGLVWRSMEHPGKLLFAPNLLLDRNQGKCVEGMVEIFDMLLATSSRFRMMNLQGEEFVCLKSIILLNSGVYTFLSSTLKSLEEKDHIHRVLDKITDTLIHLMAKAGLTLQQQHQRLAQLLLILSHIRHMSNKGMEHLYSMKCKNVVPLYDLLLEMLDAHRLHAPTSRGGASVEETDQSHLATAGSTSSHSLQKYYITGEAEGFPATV
# Procedure: For MCF-7, luciferase activity is expressed as a fold-change relative to the no E2 control. For LCC9, luciferase activity is expressed relative to the control without the reporter present. Values plotted are means ± SEMs of four replicate wells. The data shown in each panel are representative of three independent experiments.
# The cells were then treated with the indicated concentrations of the six bioactive compounds or vehicle only (DMSO) for 24-hr and assayed for luciferase activity. Luciferase activity is expressed as a percentage of the DMSO control. Values are means ± SEMs of four replicate wells. The data shown in each panel are representative of three independent experiments.
# The cells were then harvested for luciferase assays. Luciferase activity was expressed as a fold-change relative to the no reporter control. Values plotted are means ± SEMs of four replicate wells. The data shown are representative of three independent experiments.
# as §2
# LCC9 tumor xenografts = experiment: LCC9 tumor xenograft growth in Balb/c nude mice; assay type: in vivo
# Procedure: Figure 13 Compound NSC 35446 hydrochloride salt inhibits the growth of LCC9 breast cancer xenografts in athymic nude mice Experiments were performed as described in the Methods and Results sections. The effects of the compound administered intraperitoneally every other day at 5 mg/kg A., 10 mg/kg B., and 20 mg/kg C. are shown and compared with that of vehicle only (control, CT). Values of tumor volume are means ± SDs for N=5 mice per group. Athymic Balb/c nude mice were purchased from Charles River. Mice were housed 5 per cage with microisolater tops and provided food (Furina mice chow) and water ad libitum. The light cycle was regulated automatically (12 hours light/dark cycle) and temperature 23±1°C. Animals were allowed to acclimate to this environment for one week prior to usage. The Georgetown University Animal Care and Use Committee approved all animal studies in accordance with NIH guidelines. The stock solution of NSC 35446 hydrochloride was dissolved in DMSO at 200 mg/ml. The working solution was prepared using 10% Kolliphor ELP (Sigma-Aldrich), 3% PEG400 (Hampton Research, HR2-603); and 87% PBS to give a 1 mg/ml solution. Female Balb/c nude mice (18-22g) were injected with LCC9 cells (3 × 10^6 cells in a volume of 0.3 ml) in the subcutaneous tissue of the right axillary region. The mice were randomly sorted into groups with N=5 mice per group; and treatments were initiated when the tumors reached 150-200 mm^3. The tumor-bearing mice were given intraperitoneal injections of vehicle only (control), 5 mg/kg, 10 mg/kg, or 20 mg/kg of NSC 35446 hydrochloride every other day. The tumor size of each mouse was measured by caliper and calculated by the formula: length × width × width/2 and the body weight was recorded.
# [2] = body weight and signs of acute toxicity in tumor-bearing Balb/c nude mice; assay type: in vivo; details: 5, 10 or 20 mg/kg intraperitoneally every other day, 21-day study interval
# Procedure: For these studies we used LCC9 cells grown as subcutaneous tumors in Balb/c nude mice. To improve water solubility, the compound tested (NSC 35446) was prepared as the hydrochloride salt, as described in the Methods section. The mice were dosed intraperitoneally with vehicle (control) or NSC 35446 hydrochloride every other day at 5, 10, or 20 mg/kg. Treatments were initiated when the tumors reached 150-200 mm^3. […] For most time points except the earliest, differences in size between the treated and control tumors were significant (P < 0.05, ANOVA, Tukey's multiple comparison test). There appeared to be some delay in tumor growth at the 5 mg/kg dose; but by day 21, the treated tumors were approaching the control tumors in size. The T/C ratios (ie., ratios of the changes in volume of treated tumors to that of control tumors) on day-21 were: 0.77 (5 mg/kg), 0.24 (10 mg/kg), and 0.15 (20 mg/kg).
# Athymic Balb/c nude mice were purchased from Charles River. Mice were housed 5 per cage with microisolater tops and provided food (Furina mice chow) and water ad libitum. The light cycle was regulated automatically (12 hours light/dark cycle) and temperature 23±1°C. Animals were allowed to acclimate to this environment for one week prior to usage. […] The tumor size of each mouse was measured by caliper and calculated by the formula: length × width × width/2 and the body weight was recorded.
smiles,measurement,setting,value
"Oc1cc(CN2COc3ccccc32)c(O)cc1CNC1CCCCC1 [A7, reference compound]",IC50,ER Arg394Ala,12 µM
same,IC50,ER Glu323Ala,13 µM
same,IC50,ER Glu353Ala,11 µM
same,IC50,ER His356Ala,11 µM
same,IC50,ER Ile326Ala,13 µM
same,IC50,ER Ile386Ala,2.5 µM
same,IC50,ER Ile386Ala+Leu387Ala,2.5 µM
same,IC50,ER Leu327Ala,12 µM
same,IC50,ER Leu387Ala,2.5 µM
same,IC50,ER Lys449Ala,2 µM
same,IC50,ER Pro324Ala,3 µM
same,IC50,ER Pro325Ala,7 µM
same,IC50,ER Prol325Ala,7 µM
same,IC50,ER Trp393Ala,12 µM
same,IC50,Wild-type ER,2.5 µM
same,"ER activity in LCC9 cells, compound combined with Tam",[1],no more inhibition of ER activity than A7 alone
"O=C(CC(c1ccccc1)N1CCCCC1)c1ccccc1 (stereo not drawn) [NSC 35446 hydrochloride, 1,3-diphenyl-3-(piperidin-1-yl)propan-1-one]",T/C ratio (change in volume of treated tumors to control tumors) on day-21,LCC9 tumor xenografts; 5 mg/kg intraperitoneally every other day,0.77
same,T/C ratio (change in volume of treated tumors to control tumors) on day-21,LCC9 tumor xenografts; 10 mg/kg intraperitoneally every other day,0.24
same,T/C ratio (change in volume of treated tumors to control tumors) on day-21,LCC9 tumor xenografts; 20 mg/kg intraperitoneally every other day,0.15
same,effect on LCC9 tumor growth,"LCC9 tumor xenografts; intraperitoneally every other day, 21-day study",efficacious at the 10 mg/kg and 20 mg/kg doses in slowing tumor growth or causing tumor stasis
same,body weight and signs of acute toxicity,[2],No significant changes in body weight or obvious signs of acute toxicity
